This is an account of results in patent publication US7932283B2, “Fungicide N-cyclopropyl-sulfonylamide derivatives” (Bayer Cropscience AG, priority 2006, dated 2011).

The subject of one series is Puccinia recondita. Kind of series: In vivo test on Puccinia recondita f. sp. tritici (wheat brown rust). To be noted: 240 h, wheat plants (Scipion variety), grading 10 days after contamination, good (at least 70%) or total protection. As for the experimental part:
In vivo Test on Puccinia reconditef. Sp. tritici (Wheat Brown Rust)
The active ingredients tested are prepared by homogenisation in a mixture of acetone/tween/DMSO, then diluted with water to obtain the desired active material concentration. Wheat plants (Scipion variety) in starter cups, sown on 50/50 peat soil-pozzolana substrate and grown at 12° C., are treated at the 1-leaf stage (10 cm tall) by spraying with the active ingredient prepared as described above. Plants, used as controls, are treated with the mixture of acetone/tween/DMSO/water not containing the active material.
After 24 hours, the plants are contaminated by spraying the leaves with an aqueous suspension of Puccinia recondita spores (100,000 spores per ml). The spores are collected from a 10-day-old contaminated wheat and are suspended in water containing 2.5 ml/of tween 80 10%. The contaminated wheat plants are incubated for 24 hours at 20° C. and at 100% relative humidity, and then for 10 days at 20° C. and at 70% relative humidity. Grading is carried out 10 days after the contamination, in comparison with the control plants.

Series [1] is described as follows: logP by HPLC on reversed-phase column (C 18), EEC Directive 79/B31 Annex V.A8, methods A and B. In kind it is physicochemical. To be noted: reversed-phase HPLC column (C 18). On the procedure:
Calibration was carried out using unbranched alkan-2-ones (having 3 to 16 carbon atoms) with known logP values (determination of the logP values by the retention times using linear interpolation between two successive alkanones).

Where [2] appears, read: LogP method B: HPLC reversed-phase C 18, 40° C., 0.1% aqueous formic acid / acetonitrile, linear gradient 10% to 90% acetonitrile.
Setting [3] is: LogP method A: HPLC reversed-phase C 18, 43° C., 0.1% aqueous phosphoric acid / acetonitrile, linear gradient 10% to 90% acetonitrile.
Where [4] appears, read: Method B: 40° C., 0.1% aqueous formic acid and acetonitrile.
Setting [5] is: Method A: 43° C., 0.1% aqueous phosphoric acid, acetonitrile.

For the compound `CCCOc1nn(C)cc1C(=O)N(C1CC1)S(=O)(=O)c1ccc(Oc2ccccc2)cc1` [Compound 281], the pest or weed control at 500 ppm with Puccinia recondita is ≥ 70%. On the same count and under the same terms, next, `CCCCOc1ccc(S(=O)(=O)N(C(=O)c2cn(C)nc2OCCC)C2CC2)cc1` [Compound 309]: ≥ 70%; `CCCOc1nn(C)cc1C(=O)N(C1CC1)S(=O)(=O)c1ccc(Oc2cccc(C(F)(F)F)c2)cc1` [Compound 318]: ≥ 70%; `CCCOc1nn(C)cc1C(=O)N(C1CC1)S(=O)(=O)c1ccc(Oc2ccc(C(F)(F)F)cc2)cc1` [Compound 320]: ≥ 70%.

In the case of `CCCOc1nn(C)cc1C(=O)N(C1CC1)S(=O)(=O)c1ccc(Oc2ccc(Br)cc2)cc1` [Compound 328], the pest or weed control at 500 ppm in the series with Puccinia recondita is ≥ 70%. Same read-out and setting: next, `Cn1nc(C(F)(F)F)c(C(=O)N(C2CC2)S(=O)(=O)c2ccc(F)c(F)c2F)c1F` [Compound 366]: ≥ 70%. On to `CCc1nn(C)c(F)c1C(=O)N(C1CC1)S(=O)(=O)c1ccc(F)cc1Br` [Compound 380], for which the pest or weed control at 500 ppm in the series on Puccinia recondita was ≥ 70%. The compound also displayed a chromatographic logP in series [1] (HPLC reversed-phase C 18, method B: 40° C., 0.1% aqueous formic acid and acetonitrile, linear gradient 10% to 90% acetonitrile) of 2.9. On to `CCc1nn(C)c(F)c1C(=O)N(C1CC1)S(=O)(=O)c1cnc(O)c(Br)c1` [Compound 448], for which, in the series on Puccinia recondita, the pest or weed control at 500 ppm was ≥ 70%. Besides, the chromatographic logP in series [1] (setting [2]) amounted to 3.5. As for `COc1nn(C)cc1C(=O)N(C1CC1)S(=O)(=O)c1ccc(Oc2ccc(Cl)c(Cl)c2)c(Cl)c1` [Compound 513], the pest or weed control at 500 ppm in the series with Puccinia recondita was ≥ 70%. For `CCOc1nn(C)cc1C(=O)N(C1CC1)S(=O)(=O)c1ccc(Oc2ccccc2)c(O)c1` [Compound 533], the pest or weed control at 500 ppm in the series with Puccinia recondita was ≥ 70%. In series [1] (setting [2]), this compound gave a chromatographic logP of 3.9. On the same counts, the results for `CCOc1nn(C)cc1C(=O)N(C1CC1)S(=O)(=O)c1ccc(Oc2ccc(O)cc2)c(O)c1` [Compound 545] are ≥ 70% and 4.3.

On to `CCOc1nn(C)cc1C(=O)N(C1CC1)S(=O)(=O)c1ccc(Oc2ccc(F)c(O)c2)c(O)c1` [Compound 548], for which the pest or weed control at 500 ppm in the series with Puccinia recondita is ≥ 70%. Moreover, in series [1] (setting [2]), the chromatographic logP came to 4.4.

For the compound `CCOc1nn(C)cc1C(=O)N(C1CC1)S(=O)(=O)c1ccc(Oc2cccc(Br)c2)c(O)c1` [Compound 551], the pest or weed control at 500 ppm in the series on Puccinia recondita is ≥ 70%. Also, the chromatographic logP in series [1] (setting [2]) is 4.5. On the same counts, the results for `CCOc1nn(C)cc1C(=O)N(C1CC1)S(=O)(=O)c1ccc(OC2=CC(OC(F)(F)F)=CCC2)c(O)c1` [Compound 554] are ≥ 70% and 4.5. The like results for `CCOc1nn(C)cc1C(=O)N(C1CC1)S(=O)(=O)c1ccc(Oc2ccc(O)cc2O)c(O)c1` [Compound 555] were, in that order, ≥ 70% and 4.7. Consider `CCOc1nn(C)cc1C(=O)N(C1CC1)S(=O)(=O)c1ccc(Oc2ccc(Cl)c(Cl)c2)c(Cl)c1` [Compound 557], for which, in the series on Puccinia recondita, the pest or weed control at 500 ppm was ≥ 70%. For the same compound, in series [1] (setting [2]), the chromatographic logP amounted to 4.8.

On to `CCOc1nn(C)cc1C(=O)N(C1CC1)S(=O)(=O)c1ccc(Oc2ccc(Br)c(O)c2)c(Cl)c1` [Compound 558], for which the pest or weed control at 500 ppm in the series on Puccinia recondita is ≥ 70%. In series [1] (setting [2]), this compound returned a chromatographic logP of 4.9. Turning to `CC(C)c1c(C(=O)N(C2CC2)S(=O)(=O)c2ccc(O)cc2O)sc(=O)n1C1CC1` [Compound 635], the chromatographic logP in series [1] (setting [3]) worked out at 2.01.

On to `CC(C)c1c(C(=O)N(C2CC2)S(=O)(=O)c2ccc(C(C)(C)C)cc2)sc(=O)n1C1CC1` [Compound 636], for which, in series [1] (setting [3]), the chromatographic logP came out at 3.01. On the same count and under the same terms, the same measure for `O=C(c1cccnc1)N(C1CC1)S(=O)(=O)c1ccc(C(F)(F)F)cc1` [Compound 637]: 2.74; for `O=C(c1cccnc1)N(C1CC1)S(=O)(=O)c1ccc(O)c(C(F)(F)F)c1` [Compound 638]: 3.1; for `O=C(c1cccnc1)N(C1CC1)S(=O)(=O)c1ccc(O)c(O)c1` [Compound 639]: 2.91. In series [1] (setting [3]), `O=C(c1cccnc1)N(C1CC1)S(=O)(=O)c1cccc(O)c1` [Compound 642] registered a chromatographic logP of 2.3. Still for that read-out and setting: next, `O=C(c1cccnc1Cl)N(C1CC1)S(=O)(=O)c1cccc(O)c1` [Compound 643]: 2.91; `O=C(c1cccnc1Cl)N(C1CC1)S(=O)(=O)c1ccccc1O` [Compound 644]: 2.58.

`O=C(c1cccnc1O)N(C1CC1)S(=O)(=O)c1cccc(O)c1O` [Compound 645] came in with a chromatographic logP in series [1] (setting [2]) of 3.2. Same read-out and setting: next, `O=C(c1cccnc1O)N(C1CC1)S(=O)(=O)c1ccc(Oc2ccccc2)cc1` [Compound 646]: 3.7. On the same count and under the same terms, next, `O=C(c1cccnc1O)N(C1CC1)S(=O)(=O)c1ccc(O)c(O)c1O` [Compound 647]: 3.7; `O=C(c1cccnc1O)N(C1CC1)S(=O)(=O)c1ccc(Oc2ccc(Br)cc2)cc1` [Compound 648]: 4.3. The same measure, in the same setting: next, `O=C(c1cccnc1F)N(C1CC1)S(=O)(=O)c1cccc(O)c1O` [Compound 649]: 2.4.

Compound `Cc1cc(C)c(C(=O)N(C2CC2)S(=O)(=O)c2cccc(O)c2O)c(O)n1` [Compound 650] came in with a chromatographic logP in series [1] (setting [3]) of 3.57.

With `Cc1cc(C)c(C(=O)N(C2CC2)S(=O)(=O)c2ccc(O)c(O)c2O)c(Cl)n1` [Compound 651], the chromatographic logP in series [1] (setting [3]) was determined as 4.16. Same read-out and setting: next, `O=C(C1=C(C(F)(F)F)OCCS1)N(C1CC1)S(=O)(=O)c1ccccc1O` [Compound 653]: 3.2; `Cc1cc(C(=O)N(C2CC2)S(=O)(=O)c2ccccc2O)nc(Cl)n1` [Compound 654]: 2.93. Regarding `Cc1cnn(C)c1C(=O)N(C1CC1)S(=O)(=O)c1cccc(O)c1O` [Compound 658], in series [1] (setting [2]), the chromatographic logP is 3.1. Same read-out and setting: next, `Cc1cnn(C)c1C(=O)N(C1CC1)S(=O)(=O)c1ccc(O)c(O)c1O` [Compound 659]: 3.6.

`Cc1cnn(C)c1C(=O)N(C1CC1)S(=O)(=O)c1ccc(Oc2ccccc2)cc1` [Compound 660] returned a chromatographic logP in series [1] (setting [2]) of 3.6. The compound `Cc1cnn(C)c1C(=O)N(C1CC1)S(=O)(=O)c1ccc(Oc2ccc(Br)cc2)cc1` [Compound 661] had a chromatographic logP in series [1] (setting [2]) of 4.2. On the same count and under the same terms, next, `Cn1ncc(I)c1C(=O)N(C1CC1)S(=O)(=O)c1cccc(O)c1O` [Compound 662]: 2.8; `Cn1ncc(I)c1C(=O)N(C1CC1)S(=O)(=O)c1ccc(O)c(O)c1O` [Compound 663]: 3.4. In series [1] (setting [4]), `COC(=O)C1(N(C(=O)c2c(C(F)(F)F)nn(C)c2F)S(=O)(=O)c2ccc(O)c(O)c2O)CC1` [Compound 667] yielded a chromatographic logP of 4.04. `Cc1nn(C)c(F)c1C(=O)N(C1(c2ccc(O)cc2)CC1)S(=O)(=O)c1cccc(O)c1O` [Compound 669] showed a chromatographic logP in series [1] (setting [5]) of 4.44.

In series [1] (setting [4]), `Cc1nn(C)c(F)c1C(=O)N(C1(c2ccccc2)CC1)S(=O)(=O)c1cccc(O)c1O` [Compound 670] returned a chromatographic logP of 4.1. Compound `Cc1nn(C)c(F)c1C(=O)N(C1CC1c1ccccc1)S(=O)(=O)c1ccccc1O` (stereo not drawn) [Compound 676] registered a chromatographic logP in series [1] (setting [5]) of 3.27.

As usually defined, the pest or weed control is the degree to which the test organism was suppressed or injured, in per cent. Lower therefore signals a weak effect. As usually defined, the chromatographic logP is a lipophilicity value derived from retention on a column. Higher therefore signals a more lipophilic compound.
